Measured values as given in patent US7872005B2, “2-substituted heteroaryl compounds” (Synta Pharmaceuticals Corporation, priority 2004, dated 2011).

Columns and labels:
[1] = system: DNBS-induced distal colitis in Wistar derived rats; test: Dinitrobenzene sulfonic acid-induced inflammatory bowel syndrome model rats (distal colitis); assay type: in vivo, rat; conditions: oral, 24 and 2 hours before DNBS, then daily for 5 days; relative to net increase of vehicle+DNBS group
Procedure: Treatment of Crohn's disease in dinitrobenzene sulfonic acid-induced inflammatory bowel syndrome model rats: Wistar derived male or female rats weighing 200±20 g and fasted for 24 hours were used. Distal colitis was induced by intra-colonic instillation of 2,4-dinitrobenzene sulfonic acid (DNBS, 25 mg in 0.5 mL ethanol 30%) after which air (2 mL) was gently injected through the cannula to ensure that the solution remained in the colon. A test compound and/or vehicle was administered orally 24 and 2 hours before DNBS instillation and then daily for 5 days. One control group was similarly treated with vehicle alone while the other is treated with vehicle plus DNBS. The animals were sacrificed 24 hours after the final dose of test compound administration and each colon was removed and weighed. Colon-to-body weight ratio was then calculated for each animal according to the formula: Colon (g)/BW×100. The “Net” increase in ratio of Vehicle-control+DNBS group relative to Vehicle-control group was used as a base for comparison with test substance treated groups and expressed as “% Deduction.” Pyrimidine compounds of this invention (e.g., Compound 12) reproducibly had about 30% deduction. A 30% or more reduction in colon-to-body weight ratio, relative to the vehicle treated control group, was considered significant.

[2] = system: IL-12 production in human PBMC or THP-1 cells; test: In vitro inhibition of IL-12 production in stimulated human PBMC or THP-1 cells (ELISA); assay type: cell-based; conditions: representative in vitro IC50 data
From the text: The biological activities of a heterocyclic compound can be evaluated by a number of cell-based assays. One of such assays can be conducted using cells from human peripheral blood mononuclear cells (PBMC) or human monocytic cell line (THP-1). The cells are stimulated with a combination of human interferon-γ (IFNγ) and lipopolysaccharide or a combination of IFNγ and Staphylococcus aureus Cowan I in the presence of a test compound. The level of inhibition of IL-12 production can be measured by determining the amount of p70 by using a sandwich ELISA assay with anti-human IL-12 antibodies. IC50 of the test compound can then be determined. Specifically, PBMC or THP-1 cells are incubated with the test compound. Cell viability was assessed using the bioreduction of MTS [3-(4,5-dimethylthiazol-2-yl)-5-(3-carboxymethoxyphenyl)-2-(4-sulfophenyl)-2H-tetrazolium] (Promega, Madison, Wis.).
Reagents. Staphylococcus aureus Cowan I (SAC) was obtained from Calbiochem (La Jolla, Calif.), and lipopolysaccharide (LPS, Serratia marscencens) was obtained from Sigma (St. Louis, Mo.). Human and mouse recombinant IFNγ were purchased from Boehringer Mannheim (Mannheim, Germany) and Pharmingen (San Diego, Calif.), respectively.
Human In Vitro Assay. Human PBMC were isolated by centrifugation using Ficoll-Paque (Pharmacia Biotech, Uppsala, Sweden) and prepared in RPMI medium supplemented with 10% fetal calf serum (FCS), 100 U/mL penicillin, and 100 μg/mL streptomycin. PBMC were plated in wells of a 96-well plate at a concentration of 5×10^5 cells/well, and primed by adding IFNγ (30 U/mL) for 22 h and stimulated by adding LPS (1 μg/mL), or by adding IFNγ (100 U/mL) and then stimulated by adding SAC (0.01%). A test pyrimidine compound was dissolved in DMSO, and added to wells of the 96-well plate. The final DMSO concentration was adjusted to 0.25% in all cultures, including the compound-free control. Human THP-1 cells were plated in wells, primed by adding IFNγ (100 U/mL) for 22 h and stimulated by adding SAC (0.025%) in the presence of different concentrations of the pyrimidine compound. Cell-free supernatants were taken 18 h later for measurement of cytokines. Cell viability was assessed using the bioreduction of MTS. Cell survival was estimated by determining the ratio of the absorbance in compound-treated groups versus compound-free control.
The supernatant was assayed for the amount of IL-12p40, IL-12p70, or IL-10 by using a sandwich ELISA with anti-human antibodies, i.e., a Human IL-12 p40 ELISA kit from R&D Systems (Berkeley, Calif.), and a Human IL-12 p70 or IL-10 ELISA kit from Endogen (Cambridge, Mass.). Assays were based on the manufacturer's instructions.
The biological activities of pyrimidine compounds were tested on human PBMC or THP-1 cells. Unexpectedly, some of the test compounds have IC50 values as low as <1 nM.

Q: For `Cc1cccc(/C=N/Nc2cc(N3CCOCC3)nc(CCOC(=O)Nc3cccc(C(F)(F)F)c3)n2)c1` [Compound 12, (3-Trifluoromethyl-phenyl)-carbamic acid 2-{4-[N′-(3-methyl-benzylidene)-hydrazino]-6-morpholin-4-yl-pyrimidin-2-yl}-ethyl ester], which “% Deduction (colon-to-body weight ratio)” value [1] is on record?
A: The value was “about 30%”.

Q: And the IC50 [2]?
A: Its IC50 is less than 25 nM.
